# Test results: the RepoRT retention time repository (doi:10.1021/acs.analchem.2c02893)
# Assay: RP, Thermo Scientific Acclaim RSLC 120 C18, 100 × 2.1 mm, 2.2 µm, 30 °C, 0.2 mL/min, estimated dead time 1.1 min; A: 90% water + 10% methanol + 0.01% formic acid + 5 mM ammonium formate, pH 3.61; B: methanol + 0.01% formic acid + 5 mM ammonium formate, pH 3.61; gradient (min/%B) 0/1 1/1 2/39 13/99.9 15/99.9 15.1/1 20.1/1
# Conditions: stereoisomer not certain
row,SMILES,LC retention time [min]
1,CN(C)CCCC1(c2ccc(F)cc2)OCc2cc(C(N)=O)ccc21 (stereo not given) [Citalopram amide],5.15
2,CN(C(=O)COc1nc2ccccc2s1)c1ccccc1 [Mefenacet],9.83
3,CCCCC1C(=O)N(c2ccccc2)N(c2ccccc2)C1=O [Phenylbutazone],8.98
4,CC(=O)Nc1c(C)n(C)n(-c2ccccc2)c1=O [Antipyrine- 4-Acetamido],3.94
5,c1coc(-c2nc3ccccc3[nH]2)c1 [Fuberidazole],6.48
6,CCN(CCO)CCn1c(Cc2ccccc2)nc2c1c(=O)n(C)c(=O)n2C [Bamifylline],5.24
7,Nc1c2c(nc3ccccc13)CCCC2 [Tacrine],4.77
8,CCCN1CC(CSC)CC2c3cccc4[nH]cc(c34)CC21 (stereo not given) [Pergolide],6.19
9,O=C1OC(c2ccc(O)cc2)(c2ccc(O)cc2)c2ccccc21 [Phenolphthalein],7.06
10,CCNc1nc(NC(C)C)nc(SC)n1 [Ametryn],9.16
11,CCC(C)Nc1c([N+](=O)[O-])cc(C(C)(C)C)cc1[N+](=O)[O-] (stereo not given) [Butralin],13
12,CCCCCn1cc(C(=O)N2CCN(C)CC2)c2ccccc21 [MEPIRAPIM],7.75
13,C=C(C)C(N)=O [Methacrylamide],2.81
14,CC(C)(C)c1n[nH]c(=O)n(N)c1=O [Metribuzin-Diketo (DK)],5.89
15,CCC1COC(Cn2cncn2)(c2ccc(Cl)cc2Cl)O1 (stereo not given) [Etaconazole],10.2
16,O=C1OCCN1N=Cc1ccc([N+](=O)[O-])o1 [Furazolidone],4.19
17,CCCCn1cc(C(=O)c2cccc3ccccc23)c2c(O)cccc21 [JWH-073-M-4-OH-Ind],12
18,CCCCC(C#N)(Cn1cncn1)c1ccc(Cl)cc1 (stereo not given) [Myclobutanil],9.74

row,SMILES,LC retention time [min]
1,CC(C)C(C(=O)OC(C#N)c1cccc(Oc2ccccc2)c1)c1ccc(OC(F)F)cc1 (stereo not given) [Flucythrinate],12.7
2,O=C(Nc1ccc(Cl)cc1)Nc1ccc(Cl)c(Cl)c1 [Triclocarban],12
3,CCCCCn1nc(C(=O)Oc2cccc3cccnc23)c2ccccc21 [NPB-22],11.4
4,CC(=O)Nc1ccc(S(=O)(=O)Nc2cc(C)on2)cc1 [Sulfamethoxazole-N4-Acetyl  (Impurity A)],5.28
5,CC(COc1ccccc1Cc1ccccc1)N1CCCCC1 (stereo not given) [Benproperine],8.32
6,c1ccc2scnc2c1 [Benzothiazole (BTH)],6.88
7,COc1ncc(F)c2nc(S(=O)(=O)Nc3c(F)cccc3F)nn12 [Florasulam],5.75
8,OC(c1ccc(F)cc1)(c1cncnc1)c1ccccc1Cl (stereo not given) [Nuarimol],9.17
9,CC(C)Nc1nc(Cl)nc(NC(C)C)n1 [Propazine],9.16
10,Cc1ccccc1-n1c(C)nc2ccccc2c1=O [Methaqualone],7.83
11,CCOC(=O)C1C(OC(=O)c2ccccc2)CC2CCC1N2C (stereo not given) [Cocaethylene],5.46
12,CCC(CC)Nc1c([N+](=O)[O-])cc(C)c(C)c1[N+](=O)[O-] [Pendimethalin],12.8
13,CC1=C(C)S(=O)(=O)CCS1(=O)=O [Dimethipin],3.73
14,CC(C)C(Nc1ccc(C(F)(F)F)cc1Cl)C(=O)OC(C#N)c1cccc(Oc2ccccc2)c1 (stereo not given) [Fluvalinate (tau-)],13.5
15,CCN(CC)C(=O)c1cccnc1 [Nikethamide],4.64
16,O=c1ccc2cc(OC3OC(CO)C(O)C(O)C3O)c(O)cc2o1 (stereo not given) [Esculin],3.69
17,CCCCCCCn1cc(C(=O)c2cccc3ccccc23)c2ccccc21 [JWH-020],13.4
